Source: the NIST ThermoML archive (doi:10.1016/j.tca.2013.03.017)

Key:
[1] = 101 kPa, Liquid, Hot wire method
[2] = molar heat capacity at constant pressure; conditions: 101 kPa, Liquid, Small sample (50 mg) DSC
[3] = molar heat capacity at constant pressure; xn = mol fraction of the nth substance listed; conditions: 101 kPa, Liquid, Small sample (50 mg) DSC, x2 = 0
[4] = xn = mol fraction of the nth substance listed; conditions: 101 kPa, Liquid, Hot wire method, x2 = 0

O=S1(=O)CCCC1 [sulfolane]
Conditions | molar heat capacity at constant pressure, [2] [J/K/mol] | thermal conductivity, [1] [W/m/K]
303.15 K | 181.5 | 0.1678
313.15 K | 185.1 | 0.1656
323.15 K | 188.7 | 0.1634
333.15 K | 192.3 | 0.1616
343.15 K | 194.3 | 0.1593
353.15 K | 197.8 | 0.1581

O [water]
Conditions | molar heat capacity at constant pressure, [2] [J/K/mol] | thermal conductivity, [1] [W/m/K]
303.15 K | 75.3 | 0.6137
313.15 K | 75.26 | 0.6307
323.15 K | 75.3 | 0.6437
333.15 K | 75.39 | 0.6548
343.15 K | 75.48 | 0.6632
353.15 K | 75.6 | 0.67

O [water] + O=S1(=O)CCCC1
Conditions | molar heat capacity at constant pressure, [3] [J/K/mol] | thermal conductivity, [4] [W/m/K]
303.15 K | 75.3 | 0.6137
313.15 K | 75.26 | 0.6307
323.15 K | 75.3 | 0.6437
333.15 K | 75.39 | 0.6548
343.15 K | 75.48 | 0.6632
353.15 K | 75.6 | 0.67
